Data as given in PubChem BioAssay AID248 (DTP/NCI, 2004).
Values joined by “and” are separate entries in the source; they are usually repeats but may differ in a detail not shown here. Equal values may be shown once. Inconclusive results and toxic doses are left out. Rule as the data show it: active = T/C of 150% or more; inactive = T/C below 125%.

Test system: L1210 leukemia ip in BDF1 mice, survival T/C
Assay: NCI In Vivo Anticancer Drug Screen. Data for tumor model L1210 Leukemia (intraperitoneal) in B6D2F1 (BDF1) mice
Conditions: endpoint: mean survival time, higher = longer survival
In short: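 Tumor cells were implanted, animals were treated, and survival was followed. The result divides the treated measurement by the vehicle-control measurement.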

[1] = dose: 100.0 mg/kg/injection, schedule: Q01DX001 (ip), vehicle: carboxymethylcellulose (CMC)
[2] = dose: 200.0 mg/kg/injection, schedule: Q01DX001 (ip), vehicle: carboxymethylcellulose (CMC)
[3] = dose: 400.0 mg/kg/injection, schedule: Q01DX001 (ip), vehicle: carboxymethylcellulose (CMC)
[4] = dose: 100.0 mg/kg/injection, schedule: Q04DX003 (ip), vehicle: saline with Tween-80
[5] = dose: 200.0 mg/kg/injection, schedule: Q04DX003 (ip), vehicle: saline with Tween-80
[6] = dose: 400.0 mg/kg/injection, schedule: Q04DX003 (ip), vehicle: saline with Tween-80
[7] = dose: 100.0 mg/kg/injection, schedule: Q04DX002 (ip), vehicle: Klucel (hydroxypropylcellulose) (HPC)
[8] = dose: 200.0 mg/kg/injection, schedule: Q04DX002 (ip), vehicle: Klucel (hydroxypropylcellulose) (HPC)
[9] = dose: 400.0 mg/kg/injection, schedule: Q04DX002 (ip), vehicle: Klucel (hydroxypropylcellulose) (HPC)
[10] = dose: 75.0 mg/kg/injection, schedule: Q01DX001 (ip), vehicle: saline
[11] = dose: 100.0 mg/kg/injection, schedule: Q04DX003 (ip), vehicle: saline
[12] = dose: 200.0 mg/kg/injection, schedule: Q04DX003 (ip), vehicle: saline
[13] = dose: 400.0 mg/kg/injection, schedule: Q04DX003 (ip), vehicle: saline
[14] = dose: 100.0 mg/kg/injection, schedule: Q01DX001 (ip), vehicle: saline
[15] = dose: 100.0 mg/kg/injection, schedule: Q04DX003 (ip), vehicle: Klucel (hydroxypropylcellulose) (HPC)
[16] = dose: 200.0 mg/kg/injection, schedule: Q04DX003 (ip), vehicle: Klucel (hydroxypropylcellulose) (HPC)
[17] = dose: 400.0 mg/kg/injection, schedule: Q04DX003 (ip), vehicle: Klucel (hydroxypropylcellulose) (HPC)
[18] = dose: 200.0 mg/kg/injection, schedule: Q01DX001 (ip), vehicle: saline
[19] = dose: 400.0 mg/kg/injection, schedule: Q01DX001 (ip), vehicle: saline
[20] = dose: 100.0 mg/kg/injection, schedule: Q04DX002 (ip), vehicle: saline with Tween-80
[21] = dose: 200.0 mg/kg/injection, schedule: Q04DX002 (ip), vehicle: saline with Tween-80
[22] = dose: 400.0 mg/kg/injection, schedule: Q04DX002 (ip), vehicle: saline with Tween-80

Measured: T/C

CCCN(CCC)C(=O)/C(=C\c1ccccc1)NC(=O)c1ccccc1
inactive: [1] 93 % of control | [2] 93 % of control | [3] 98 % of control

[O-][P+](=NC12CC3CC(CC(C3)C1)C2)c1ccccc1 (configuration not stated)
inactive: dose: 75.0 mg/kg/injection, schedule: Q04DX003 (ip), vehicle: Klucel (hydroxypropylcellulose) (HPC) 99 % of control | dose: 150.0 mg/kg/injection, schedule: Q04DX003 (ip), vehicle: Klucel (hydroxypropylcellulose) (HPC) 101 % of control | dose: 300.0 mg/kg/injection, schedule: Q04DX003 (ip), vehicle: Klucel (hydroxypropylcellulose) (HPC) 100 % of control

CN(CCC#N)c1ccc(/C=C(\C#N)C(N)=O)cc1
inactive: dose: 100.0 mg/kg/injection, schedule: Q01DX001 (ip), vehicle: saline with Tween-80 102 % of control | [4] 92 % of control and 93 % of control | dose: 200.0 mg/kg/injection, schedule: Q01DX001 (ip), vehicle: saline with Tween-80 102 % of control | [5] 100 % of control and 90 % of control | dose: 400.0 mg/kg/injection, schedule: Q01DX001 (ip), vehicle: saline with Tween-80 89 % of control | [6] 98 % of control and 90 % of control

COC1=NS(=O)(=O)N=C(c2ccc(OC)cc2)O1
inactive: [7] 103 % of control | [8] 100 % of control | [9] 89 % of control

CC(=O)[O][Sn]([CH2]c1ccccc1)([CH2]c1ccccc1)[O]C(C)=O
inactive: dose: 100.0 mg/kg/injection, schedule: Q01DX009 (ip), vehicle: other 109 % of control | dose: 100.0 mg/kg/injection, schedule: Q04DX003 (ip), vehicle: other 92 % of control | dose: 200.0 mg/kg/injection, schedule: Q01DX009 (ip), vehicle: other 98 % of control | dose: 200.0 mg/kg/injection, schedule: Q04DX003 (ip), vehicle: other 97 % of control | dose: 400.0 mg/kg/injection, schedule: Q01DX009 (ip), vehicle: other 95 % of control | dose: 400.0 mg/kg/injection, schedule: Q04DX003 (ip), vehicle: other 95 % of control

Cc1cn(-c2ccccc2)c(=O)[nH]c1=O
inactive: dose: 100.0 mg/kg/injection, schedule: Q01DX001 (ip), vehicle: other 112 % of control

Cc1ccc(S(=O)(O)=S)cc1.[Fe]
inactive: [10] 88 % of control | dose: 300.0 mg/kg/injection, schedule: Q01DX001 (ip), vehicle: saline 86 % of control

COc1ccc(CCNC(c2ccccc2)c2ccccc2)cc1OC
inactive: [11] 105 % of control | [12] 108 % of control | [13] 105 % of control

CN(C)c1ccc(C=NCCCNC2CCCCC2)cc1
inactive: dose: 25.0 mg/kg/injection, schedule: Q04DX003 (ip), vehicle: other 94 % of control | dose: 50.0 mg/kg/injection, schedule: Q04DX003 (ip), vehicle: other 102 % of control | [14] 88 % of control

Nc1nc(-c2ccc(Cl)cc2)c(N=Nc2ccc(Br)cc2)s1
inactive: [4] 104 % of control | [5] 97 % of control | [6] 101 % of control

O=C([O-])C1CCCCC1[I+]c1ccccc1 (configuration not stated)
inactive: [11] 100 % of control | [12] 98 % of control

CCOC(=O)c1cc2cc([N+](=O)[O-])ccc2oc1=O
inactive: [15] 93 % of control | [16] 93 % of control | [17] 94 % of control

COC(=O)C1=C(\N2CCOCC2)CCCC/C=C\1C(=O)OC
inactive: [1] 108 % of control | [2] 105 % of control | [3] 102 % of control

CCc1c(Nc2ccccc2C)[nH]c(N)nc1=S
inactive: dose: 100.0 mg/kg/injection, schedule: Q01DX Z (ip), vehicle: methylcellulose (MC) 101 % of control | dose: 200.0 mg/kg/injection, schedule: Q01DX Z (ip), vehicle: methylcellulose (MC) 95 % of control

O=C(c1cccnc1)c1cccnc1
inactive: [15] 91 % of control | [16] 100 % of control | [17] 97 % of control

CC1CCC/C(=N/Nc2ccc3ccccc3n2)C1 (configuration not stated)
inactive: [10] 113 % of control

CCCCCCCCCCCCCCCCC1CCc2ccccc21 (configuration not stated)
inactive: dose: 50.0 mg/kg/injection, schedule: Q01DX001 (ip), vehicle: saline 101 % of control | [14] 101 % of control | [18] 98 % of control | [19] 101 % of control

O=C(NC(=O)C(Cl)Cl)OC1c2ccccc2-c2ccccc21
inactive: dose: 50.0 mg/kg/injection, schedule: Q01DX001 (ip), vehicle: Klucel (hydroxypropylcellulose) (HPC) 95 % of control | dose: 100.0 mg/kg/injection, schedule: Q01DX001 (ip), vehicle: Klucel (hydroxypropylcellulose) (HPC) 100 % of control | dose: 100.0 mg/kg/injection, schedule: Q01DX009 (ip), vehicle: Klucel (hydroxypropylcellulose) (HPC) 90 % of control | [15] 96 % of control | dose: 200.0 mg/kg/injection, schedule: Q01DX001 (ip), vehicle: Klucel (hydroxypropylcellulose) (HPC) 94 % of control | dose: 200.0 mg/kg/injection, schedule: Q01DX009 (ip), vehicle: Klucel (hydroxypropylcellulose) (HPC) 93 % of control | [16] 96 % of control | dose: 400.0 mg/kg/injection, schedule: Q01DX001 (ip), vehicle: Klucel (hydroxypropylcellulose) (HPC) 92 % of control | [17] 95 % of control

CC1(C)N=C(N)N=C(N)N1c1cccc(OCCCOc2ccc([N+](=O)[O-])cc2)c1
inactive: [14] 91 % of control

CC1(C)c2ccccc2N(CCCN2CCCCC2)c2ccccc21
inactive: dose: 9.0 mg/kg/injection, schedule: Q01DX001 (ip), vehicle: water 101 % of control | dose: 18.0 mg/kg/injection, schedule: Q01DX001 (ip), vehicle: water 93 % of control | dose: 36.0 mg/kg/injection, schedule: Q01DX001 (ip), vehicle: water 101 % of control | dose: 50.0 mg/kg/injection, schedule: Q01DX001 (ip), vehicle: water 91 % of control | dose: 100.0 mg/kg/injection, schedule: Q01DX001 (ip), vehicle: water 91 % of control | dose: 200.0 mg/kg/injection, schedule: Q01DX001 (ip), vehicle: water 100 % of control

NCC(=O)CCS(=O)(=O)c1ccc(Cl)cc1
inactive: dose: 12.5 mg/kg/injection, schedule: Q04DX003 (ip), vehicle: saline 96 % of control | dose: 25.0 mg/kg/injection, schedule: Q04DX003 (ip), vehicle: saline 91 % of control | dose: 50.0 mg/kg/injection, schedule: Q04DX003 (ip), vehicle: saline 93 % of control

CCCCCCCCCCC[CH2][Sn]([Cl])([CH2]CCCCCCCCCCC)[CH2]CCCCCCCCCCC
inactive: [20] 96 % of control | [21] 96 % of control | [22] 93 % of control

Cc1cccc(C(=O)O)n1
inactive: dose: 100.0 mg/kg/injection, schedule: Q01DX009 (ip), vehicle: saline 103 % of control | [11] 104 % of control | dose: 200.0 mg/kg/injection, schedule: Q01DX009 (ip), vehicle: saline 113 % of control | [12] 101 % of control | dose: 400.0 mg/kg/injection, schedule: Q01DX009 (ip), vehicle: saline 93 % of control | [13] 95 % of control

Nc1ccn(C2OC(CO)C(O)C2O)c(=NCC(=O)O)n1 (configuration not stated)
inactive: dose: 100.0 mg/kg/injection, schedule: Q01DX005 (ip), vehicle: saline 120 % of control | dose: 200.0 mg/kg/injection, schedule: Q01DX005 (ip), vehicle: saline 122 % of control

CCOC(=O)Cc1cc(=O)c2cc(C)ccc2[nH]1
inactive: [14] 90 % of control | [18] 89 % of control | [19] 90 % of control

O=C(CF)NC1C(O)OC(CO)C(O)C1O (configuration not stated)
inactive: [14] 107 % of control | [18] 112 % of control

OC1CCCCC1Sc1ccccc1 (configuration not stated)
inactive: [20] 117 % of control | [21] 111 % of control | [22] 105 % of control

Cc1cc(Cl)cc(Cl)c1OCC(=O)O
inactive: [7] 98 % of control | [8] 95 % of control | [9] 95 % of control
